Patent publication US10344019B2 (priority 2010, dated 2019)
Like-named read-outs stand apart in the source and are kept apart here.

Key:
Assay type in all cases: cell-based
[1] = test system: HCV 1a RLuc cells (dicistronic genotype 1a H77 replicon, RLuc reporter); assay: microbe, parasite or virus in culture; settings: Hepatitis C virus, read-out: 1a
Summary of the method: (§1)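 Replicons used: genotype 1b Con1, 1a H77, 2a JFH-1, and a 2a JFH-1 chimera with J6-strain NS5A (M31 present), all dicistronic.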

[2] = test system: HCV 1b RLuc cells (dicistronic genotype 1b Con1 replicon, RLuc reporter); assay: microbe, parasite or virus in culture; settings: Hepatitis C virus, read-out: 1b (nM)
Summary of the method: as §1

[3] = test system: HCV 2a JFH-1 Rluc cells (dicistronic genotype 2a JFH-1 replicon, RLuc reporter); assay: microbe, parasite or virus in culture; settings: Hepatitis C virus, genotype 2a JFH-1 replicon, read-out: 2a JFH
Summary of the method: as §1

[4] = test system: HCV 3a RLuc cells (NS5A chimeric genotype 1b Con1 replicon with consensus genotype 3a NS5A gene); assay: microbe, parasite or virus in culture; settings: Hepatitis C virus
Summary of the method: (§2)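 Replicon cells stably carrying the listed RLuc-encoding dicistronic replicons were seeded and treated with DMSO serial dilutions of compound (10 mM stocks) diluted into culture medium. After 72 h, cells were lysed and Renilla luciferase activity measured. EC50 was derived by non-linear regression.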

[5] = test system: HCV 4a Rluc cells (NS5A chimeric genotype 1b Con1 replicon with genotype 4a NS5A gene); assay: microbe, parasite or virus in culture; settings: Hepatitis C virus, read-out: 4a
Summary of the method: as §2

[6] = test system: HCV 2a Rluc cells (NS5A chimeric genotype 2a JFH-1 replicon with genotype 2a J6 strain NS5A gene, M31 present); assay: HCV replicon reporter assay, genotype 2a J6 (M31 present); settings: Hepatitis C virus, read-out: 2a J6
Protocol: Evaluation of cell-based anti-HCV activity: Antiviral potency (EC50) was determined using a Renilla luciferase (RLuc)-based HCV replicon reporter assay. To perform the assay for genotype 1 and 2a JFH-1, HCV 1b RLuc cells (harboring a dicistronic genotype 1b Con1 replicon that encodes a RLuc reporter), or HCV 1a RLuc cells (harboring a dicistronic genotype 1a H77 replicon that encodes a RLuc reporter), or HCV 2a JFH-1 Rluc cells (harboring a dicistronic genotype 2a JFH-1 replicon that encodes a RLuc reporter) were dispensed into 384-well plates. To perform the assay for genotype 2a (with M31 present) or 2b, HCV 2a Rluc or 2b Rluc cells (both with M31 present) harboring a dicistronic NS5A chimeric genotype 2a JFH-1 replicon that encodes a RLuc reporter and either genotype 2a J6 strain NS5A gene or genotype 2b MD2b-1 NS5A gene (based on Los Alamos HCV database isolates, both with M31 present) respectively, were dispensed into 384-well plates. To perform the assay for genotype 3 and 4, HCV 3a RLuc or 4a Rluc cells harboring a dicistronic NS5A chimeric genotype 1b Con1 replicon that encodes a RLuc reporter and either a consensus genotype 3a NS5A gene or genotype 4a NS5A gene (based on Los Alamos HCV database isolates) respectively, were dispensed into 384-well plates. Compounds were re-suspended in DMSO at a concentration of 10 mM and serially diluted in DMSO either manually or using an automated pipeting instrument. Serially diluted compounds were mixed with cell culture media and added to the seeded cells. […] 72 hours later, cells were lysed and Renilla luciferase activity quantified as recommended by the manufacturer (Promega-Madison, Wis.). Non-linear regression was performed to calculate EC50 values.

[7] = read-out: 3a, genotype 3a replicon
[8] = 72 h, Table 2, genotype 1a H77 replicon, 72 hours
[9] = read-out: 3a, Table 2, genotype 3a NS5A chimeric replicon
[10] = genotype 1a H77 replicon, RLuc reporter
[11] = read-out: 3a, genotype 3a NS5A chimeric 1b Con1 replicon

SMILES	EC50 ([1]; genotype 1a replicon)	EC50 [2]	EC50 [3]	EC50 [4, 7]	EC50 [5]	EC50 [1, 8]	EC50 ([2]; 72 h)	EC50 ([3]; 72 h, Table 2, 72 hours)	EC50 [4, 9]	further results
COC(=O)N[C@H](C(=O)N1CCC[C@H]1c1nc2ccc3cc(-c4ccc(-c5[nH]c([C@@H]6[C@H]7CC[C@H](C7)N6C(=O)[C@H](NC(=O)OC)c6ccccc6)nc5Cl)cc4)ccc3c2[nH]1)C(C)C [Example 402]	0.001 to 0.999 nM	0.015 nM	0.001 to 0.999 nM	0.001 to 0.99 nM	0.001 to 0.99 nM					EC50 [6]: > 44 nM
COC(=O)N[C@H](C(=O)N1CCC[C@H]1c1nnc(-c2ccc(-c3ccc4c(ccc5nc([C@@H]6CCCN6C(=O)[C@@H](NC(=O)OC)C(C)C)[nH]c54)c3)cc2)[nH]1)C(C)C [Example 407]	0.001 to 0.999 nM	0.048 nM	0.001 to 0.999 nM	1 to 4.99 nM	0.001 to 0.99 nM					EC50 [6]: > 44 nM
COC(=O)N[C@H](C(=O)N1CCC[C@H]1c1nc2ccc3cc(-c4ccc(-c5cnc([C@@H]6[C@H]7CC[C@H](C7)N6C(=O)[C@@H](NC(=O)OC)[C@@H](C)OC)[nH]5)cc4)ccc3c2[nH]1)C(C)C [Example 55]					0.001 to 0.99 nM	0.001 to 0.999 nM	0.015 nM	0.001 to 0.999 nM	0.001 to 0.99 nM	EC50 [6]: > 44 nM
COC(=O)NC(C(=O)N1CCC[C@H]1c1ncc(-c2ccc(-c3ccc4c(ccc5nc([C@@H]6[C@H]7CC[C@H](C7)N6C(=O)[C@@H](NC(=O)OC)[C@@H](C)OC)[nH]c54)c3)cc2)[nH]1)C(C)C (stereo partly drawn) [Example 66]					0.001 to 0.99 nM	0.001 to 0.999 nM	0.022 nM	0.001 to 0.999 nM	0.001 to 0.99 nM	EC50 [6]: > 44 nM
COC(=O)N[C@H](C(=O)N1CCC[C@H]1c1ncc(-c2ccc3c(c2)CCc2cc(-c4ccc5nc([C@@H]6[C@H]7CC[C@H](C7)N6C(=O)[C@@H](NC(=O)OC)[C@@H](C)OC)[nH]c5c4)ccc2-3)[nH]1)[C@@H](C)OC [Example 76]					0.001 to 0.99 nM	0.001 to 0.999 nM	0.01 nM	1 to 44 nM	1 to 4.99 nM	
COC(=O)NC(C(=O)N1CCC[C@H]1c1ncc(-c2ccc(-c3ccc4c(ccc5nc([C@@H]6[C@H]7CC[C@H](C7)N6C(=O)[C@@H](NC(=O)OC)C(C)C)[nH]c54)c3)cc2)[nH]1)C1CCOCC1 (stereo partly drawn) [Example 69]					0.001 to 0.99 nM	0.001 to 0.999 nM	0.035 nM	0.001 to 0.999 nM	0.001 to 0.99 nM	
COC(=O)N[C@H](C(=O)N1CCC[C@H]1c1ncc(-c2ccc3cc(-c4ccc(-c5cnc([C@@H]6CC7(CN6C(=O)[C@H](NC(=O)OC)c6ccccc6)OCCO7)[nH]5)cc4)ccc3c2)[nH]1)C(C)C [Example 45]					0.001 to 0.99 nM	0.001 to 0.999 nM	0.014 nM	0.001 to 0.999 nM	1 to 4.99 nM	
COC(=O)N[C@H](C(=O)N1CCC[C@H]1c1ncc(-c2ccc3cc(-c4ccc5c(ccc6nc([C@@H]7[C@H]8CC[C@H](C8)N7C(=O)[C@H](NC(=O)OC)c7ccccc7)[nH]c65)c4)ccc3c2)[nH]1)[C@@H](C)OC [Example 328]	0.001 to 0.999 nM	0.008 nM	0.001 to 0.999 nM	1 to 4.99 nM	0.001 to 0.99 nM					
COC(=O)N[C@H](C(=O)N1CCC[C@H]1c1nc2c([nH]1)COc1cc(-c3ccc4cc(-c5c[nH]c([C@@H]6CCCN6C(=O)[C@@H](c6ccccc6)N(C)C)n5)ccc4c3)ccc1-2)C(C)C [Example 177]		0.01 nM			0.001 to 0.99 nM					EC50 [1, 10]: 0.001 to 0.999 nM; EC50 ([3]; RLuc reporter): 0.001 to 0.999 nM; EC50 [4, 11]: 0.001 to 0.99 nM
COC(=O)N[C@H](C(=O)N1CCC[C@H]1c1ncc(-c2cc3c4c(c2)CCc2cc(-c5cnc([C@@H]6CCCN6C(=O)[C@@H](NC(=O)OC)C6CCOCC6)[nH]5)cc(c2-4)CC3)[nH]1)C(C)C [Example 23]					0.001 to 0.99 nM		0.067 nM			EC50 ([1]; 72 h, Table 1, genotype 1a H77 replicon, 72 hours): 0.001 to 0.999 nM; EC50 ([3]; 72 h, Table 1, 72 hours): 0.001 to 0.999 nM; EC50 ([4]; read-out: 3a, Table 1, genotype 3a NS5A chimeric replicon): 0.001 to 0.99 nM
COC(=O)N[C@H](C(=O)N1CC2(C[C@@H]1c1nc(-c3ccc4c(c3)C(F)(F)c3cc(-c5ccc6nc([C@@H]7CCCN7C(=O)[C@H](NC(=O)OC)c7ccccc7)[nH]c6c5)ccc3-4)c[nH]1)OCCO2)C(C)C [Example 46]					0.001 to 0.99 nM	0.001 to 0.999 nM	0.007 nM	0.001 to 0.999 nM	1 to 4.99 nM	
COC(=O)N[C@H](C(=O)N1[C@@H]2C[C@@H]2C[C@H]1c1nc2ccc3cc(-c4ccc(-c5cnc([C@@H]6[C@H]7CC[C@H](C7)N6C(=O)[C@@H](NC(=O)OC)C6CCOCC6)[nH]5)c(F)c4)ccc3c2[nH]1)C(C)C [Example 320]	0.001 to 0.999 nM	0.01 nM	0.001 to 0.999 nM	0.001 to 0.99 nM	0.001 to 0.99 nM					
COC(=O)N[C@H](C(=O)N1CCC[C@H]1c1ncc(-c2ccc3cc(-c4ccc(-c5cnc([C@@H]6CCCN6C(=O)[C@@H](NC(=O)OC)[C@H](C)OC)[nH]5)cc4)ccc3c2)[nH]1)C(C)C [Example 241]		0.011 nM			0.001 to 0.99 nM					EC50 [1, 10]: 0.001 to 0.999 nM; EC50 ([3]; RLuc reporter): 1 to 44 nM; EC50 [4, 11]: 1 to 4.99 nM
COC(=O)N[C@H](C(=O)N1[C@@H]2C[C@@H]2C[C@H]1c1nc2ccc3cc(-c4ccc5c(ccc6nc([C@@H]7[C@H]8CC[C@H](C8)N7C(=O)[C@H](NC(=O)OC)c7ccccc7)[nH]c65)c4)ccc3c2[nH]1)C(C)C [Example 343]	0.001 to 0.999 nM	0.012 nM	0.001 to 0.999 nM	0.001 to 0.99 nM	0.001 to 0.99 nM					
COC(=O)N[C@H](C(=O)N1[C@@H]2CC[C@@H](C2)[C@H]1c1nc2ccc3cc(-c4ccc(-c5cnc([C@@H]6C[C@H]7C[C@H]7N6C(=O)[C@@H](NC(=O)OC)C6CCOCC6)[nH]5)cc4)ccc3c2[nH]1)C(C)C [Example 367]	0.001 to 0.999 nM	0.049 nM	0.001 to 0.999 nM	0.001 to 0.99 nM	0.001 to 0.99 nM					
COC(=O)N[C@H](C(=O)N1CCC[C@H]1c1nc2c([nH]1)-c1ccc(-c3ccc4cc(-c5cnc([C@@H]6CCCN6C(=O)[C@H](NC(=O)CC6CCOCC6)c6ccccc6)[nH]5)ccc4c3)cc1CC2)C(C)C [Example 273]		0.042 nM			0.001 to 0.99 nM					EC50 [1, 10]: 0.001 to 0.999 nM; EC50 ([3]; RLuc reporter): 0.001 to 0.999 nM; EC50 [4, 11]: 0.001 to 0.99 nM
COC(=O)N[C@H](C(=O)N1CCC[C@H]1c1ncc(-c2ccc3c4ccc(-c5cnc([C@@H]6CCCN6C(=O)[C@@H](NC(=O)OC)[C@@H](C)OC)[nH]5)cc4c4ccccc4c3c2)[nH]1)[C@@H](C)OC [Example 310]	0.001 to 0.999 nM	0.041 nM	0.001 to 0.999 nM	0.001 to 0.99 nM	0.001 to 0.99 nM					
COC(=O)N[C@H](C(=O)N1CCC[C@H]1c1ncc(-c2ccc3c(c2)C(=C(C)C)c2cc(-c4cnc([C@@H]5CCCN5C(=O)[C@@H](NC(=O)OC)C(C)C)[nH]4)ccc2-3)[nH]1)C(C)C [Example 249]		0.014 nM			0.001 to 0.99 nM					EC50 [1, 10]: 1 to 44 nM; EC50 ([3]; RLuc reporter): 1 to 44 nM; EC50 [4, 11]: > 5 nM
COC(=O)N[C@@H](C(=O)N1CCC[C@H]1c1ncc(-c2ccc3cc(-c4ccc5c(c4)CCc4nc([C@@H]6CCCN6C(=O)[C@@H](NC(O)OC)C6CCN(S(C)(=O)=O)CC6)[nH]c4-5)ccc3c2)[nH]1)c1ccccc1 (stereo partly drawn) [Example 281]		0.063 nM			0.001 to 0.99 nM					EC50 [1, 10]: 0.001 to 0.999 nM; EC50 ([3]; RLuc reporter): 0.001 to 0.999 nM; EC50 [4, 11]: 0.001 to 0.99 nM
